Results as given in US11572590B2, “Methods for evaluating tumor cell spheroids using 3D microfluidic cell culture device” (Dana-Farber Cancer Institute, Inc., priority 2017, dated 2023).

System: CT26 spheroids lacking immune cells
Experiment: Viability of CT26 spheroids lacking immune cells
Format: cell-based
Experimental: Fresh tumor specimens (murine and human patients) were received in media (DMEM) on ice and minced in a 10 cm dish (on ice) using sterile forceps and scalpel. Minced tumor was resuspended in DMEM ([…], […] sodium pyruvate, 1:100 penicillin-streptomycin) (Corning CellGro, Manassas, Va.) +10% FBS (Gemini Bio-Products, West Sacramento, Calif.), 100 U/mL collagenase type IV (Life Technologies, Carlsbad, Calif.), and 15 mM HEPES (Life Technologies, Carlsbad, Calif.), except for CT26 tumors that were prepared in RPMI. Samples were pelleted and resuspended in 10-20 mL media. Red blood cells were removed from visibly bloody samples using RBC Lysis Buffer (Boston Bio-Products, Ashland, Mass.). […]
Dual labeling was performed by loading microfluidic device with Nexcelom ViaStain™ AO/PI Staining Solution (Nexcelom, CS2-0106). Following incubation with the dyes (20 minutes at room temperature in the dark), images were captured on a Nikon Eclipse 80i fluorescence microscope equipped with Z-stack (Prior) and CoolSNAP CCD camera (Roper Scientific). […] Live and dead cell quantitation was performed by measuring total cell area of each dye. […]

Q: With N#Cc1cc(-c2ncnc(Nc3ccc(N4CCN(C5COC5)CC4)cc3)n2)ccc1OC1CCOCC1 [Compound 1, 5-(4-((4-(4-(oxetan-3-yl)piperazin-1-yl)phenyl)amino)-1,3,5-triazin-2-yl)-2-((tetrahydro-2H-pyran-4-yl)oxy)benzonitrile] as the compound, how does the “cytotoxic effects on CT26 cell line spheroids (viability)” value read?
A: Its value is “without cytotoxic effects”.
